From paper PMC10376326, “Novel Acylselenourea Derivatives: Dual Molecules with Anticancer and Radical Scavenging Activity” (Antioxidants, 2023)

System: HTB-54 (lung) cancer cell line
Assay: MTT cell viability assay, HTB-54
Format: cell-based, human
Details: Homo sapiens, HTB-54, 48 h, read-out: Cell growth %, HTB-54, 10 µM, 48 h, MTT
Method: (§1) Cell lines were purchased from the American Type Culture Collection (ATCC). Cell lines MDA-MB-231, HTB-54, DU-145, and BEAS-2B were cultured in RPMI 1640 medium (Gibco, Thermo Fisher Scientific, Gaithersburg, MD, USA) supplemented with 10% fetal bovine serum (FBS; Gibco), 100 units/mL penicillin, and […] streptomycin (Gibco). HT-29 cell line was grown in McCoy’s 5A (Gibco), 10% FBS, 100 units/mL penicillin, and 100 μg/mL streptomycin. Cells were maintained at 37 °C and 5% CO2. The culture medium was changed every three days.
(§2) The cell viability of each compound was measured by MTT colorimetric assay. Each compound was dissolved in DMSO at a concentration of 0.01 M. Each compound was tested at two different concentrations (10 and 50 µM) in MDA-MB-231 (breast), HTB-54 (lung), DU-145 (prostate), and HT-29 (colon) human cancer cell lines. Serial dilutions were prepared with supplemented culture medium. […] IC50 and selectivity indexes (SI) were determined.
(§3) Briefly, 1 × 10^4 tumor cells per well were grown in 96-well plates for 24 h. Then, these cells were incubated for 48 h with either DMSO (control) or a different concentration of each of the tested compounds. The cell viability was determined by adding 20 μL of MTT two hours and a half before the termination point. After this time, the culture medium was removed. The resulting formazan crystals were dissolved in 50 μL of DMSO, and the absorbance was measured at 570 nm. Results are expressed as % cell growth. The data were obtained from at least three independent experiments performed in quadruplicate.

Compound	activity at 10 µM
CCCNC(=[Se])NC(=O)c1cccs1 [Compound 2.I, N-(propylcarbamoselenoyl)thiophene-2-carboxamide]	92.3 ± 6.2%

Same assay, conditions: Homo sapiens, HTB-54, 48 h, read-out: Cell growth %, HTB-54, 50 µM, 48 h, MTT

Compound	activity at 50 µM
CCCNC(=[Se])NC(=O)c1cccs1 [Compound 2.I, N-(propylcarbamoselenoyl)thiophene-2-carboxamide]	71.8 ± 4.4%

Same assay, conditions: Homo sapiens, HTB-54, 48 h, read-out: IC50 HTB-54, Lung, MTT, 48 h

Compound	IC50
CCCNC(=[Se])NC(=O)c1cccs1 [Compound 2.I, N-(propylcarbamoselenoyl)thiophene-2-carboxamide]	8.6 ± 1.1 µM

Same assay, conditions: IC50 (BEAS-2B)/IC50 (HTB-54)

Compound	SI
CCCNC(=[Se])NC(=O)c1cccs1 [Compound 2.I, N-(propylcarbamoselenoyl)thiophene-2-carboxamide]	0.6

System: non-malignant BEAS-2B lung cell line
Assay: MTT cell viability assay, BEAS-2B
Format: cell-based
Details: Homo sapiens, normal lung, 48 h
Method: as §1, §2, §3

Compound	IC50
CCCNC(=[Se])NC(=O)c1cccs1 [Compound 2.I, N-(propylcarbamoselenoyl)thiophene-2-carboxamide]	5.3 ± 0.6 µM

System: HT-29 (colon) cancer cell line
Assay: MTT cell viability assay, HT-29
Format: cell-based
Details: Homo sapiens, HT-29, 48 h, HT-29, 10 µM, read-out: Cell growth %
Method: as §1, §2, §3

Compound	activity at 10 µM
CCCNC(=[Se])NC(=O)c1cccs1 [Compound 2.I, N-(propylcarbamoselenoyl)thiophene-2-carboxamide]	48.4 ± 13.8%

Same assay, conditions: Homo sapiens, HT-29, 48 h, HT-29, 50 µM, read-out: Cell growth %

Compound	activity at 50 µM
CCCNC(=[Se])NC(=O)c1cccs1 [Compound 2.I, N-(propylcarbamoselenoyl)thiophene-2-carboxamide]	32.7 ± 6.9%

System: DU-145 cells
Assay: Protective effects against H2O2-induced oxidative stress in DU-145 cells (MTT)
Format: cell-based, human
Details: increase-fold of cell survival; compound 0.0003 mg/mL, 200 µM H2O2, DU-145
Method: Cells were treated with the selected compounds and then oxidative damage to DU-145 cells was induced using different concentrations of H2O2 (200, 250 and 300 µM), and cell viability was assessed by the MTT method. Briefly, 2.5 × 10^4 DU-145 cells per well were added in 96-well plates. After 24 h of incubation, DMSO, 1.I, 2.I, 5.I, 7.II, 10.II, and ascorbic acid were added to each well at two different concentrations (0.0015 mg/mL and 0.0003 mg/mL) and incubated for 1 h. After that, H2O2 was added at the concentrations of 200, 250, and 300 µM, and the cells were incubated for 12 h to induce cell damage. MTT assay was used to measure cell viability. For each treatment, the mean cell viability was calculated from three independent experiments. The DMSO-treated controls were assigned with a cell viability value of 100% (Vcontrol). The results are expressed as a cell growth inhibition % caused by H2O2 and the increased fold of cell survival, as follows: • Cells without compounds, only treated with H2O2: (2) % Cell growth inhibition=Acontrol - Asample/Acontrol × 100
• Cells treated with compounds and H2O2:
(3) % Cell growth inhibition=Asample (compound) - Asample (compound+H2O2)/Acontrol × 100
(4) Increase-fold of cell survival=% cell growth inhibition (H2O2)/% cell growth inhibition (compound+ H2O2)
The standard error of the mean (SEM) was calculated in at least three independent experiments performed in quadruplicates.

Compound	Increase-fold
CCCNC(=[Se])NC(=O)c1cccs1 [Compound 2.I, N-(propylcarbamoselenoyl)thiophene-2-carboxamide]	0.8 ± 0.2

Same assay, conditions: increase-fold of cell survival; compound 0.0003 mg/mL, 250 µM H2O2, DU-145

Compound	Increase-fold
CCCNC(=[Se])NC(=O)c1cccs1 [Compound 2.I, N-(propylcarbamoselenoyl)thiophene-2-carboxamide]	0.9 ± 0.2

Same assay, conditions: increase-fold of cell survival; compound 0.0003 mg/mL, 300 µM H2O2, DU-145

Compound	Increase-fold
CCCNC(=[Se])NC(=O)c1cccs1 [Compound 2.I, N-(propylcarbamoselenoyl)thiophene-2-carboxamide]	1.0 ± 0.3

Same assay, conditions: increase-fold of cell survival; compound 0.0015 mg/mL, 200 µM H2O2, DU-145

Compound	Increase-fold
CCCNC(=[Se])NC(=O)c1cccs1 [Compound 2.I, N-(propylcarbamoselenoyl)thiophene-2-carboxamide]	2.9 ± 1.5

Same assay, conditions: increase-fold of cell survival; compound 0.0015 mg/mL, 250 µM H2O2, DU-145

Compound	Increase-fold
CCCNC(=[Se])NC(=O)c1cccs1 [Compound 2.I, N-(propylcarbamoselenoyl)thiophene-2-carboxamide]	3.1 ± 1.3

Same assay, conditions: increase-fold of cell survival; compound 0.0015 mg/mL, 300 µM H2O2, DU-145

Compound	Increase-fold
CCCNC(=[Se])NC(=O)c1cccs1 [Compound 2.I, N-(propylcarbamoselenoyl)thiophene-2-carboxamide]	2.9 ± 1.2

System: MDA-MB-231, HT-29, HTB-54 and DU-145 cancer cell lines
Assay: MTT cell viability assay, statements over the panel of cancer cell lines
Format: cell-based, human
Details: in at least three of the four cancer cell lines tested
Method: as §1, §2, §3

Compound	cell growth
CCCNC(=[Se])NC(=O)c1cccs1 [Compound 2.I, N-(propylcarbamoselenoyl)thiophene-2-carboxamide]	below 55%

System: DU-145 (prostate) cancer cell line
Assay: MTT cell viability assay, DU-145
Format: cell-based, human
Details: Homo sapiens, DU-145, 48 h, read-out: Cell growth %, DU-145, 10 µM, 48 h, MTT
Method: as §1, §2, §3

Compound	activity at 10 µM
CCCNC(=[Se])NC(=O)c1cccs1 [Compound 2.I, N-(propylcarbamoselenoyl)thiophene-2-carboxamide]	54.5 ± 8.4%

Same assay, conditions: Homo sapiens, DU-145, 48 h, read-out: Cell growth %, DU-145, 50 µM, 48 h, MTT

Compound	activity at 50 µM
CCCNC(=[Se])NC(=O)c1cccs1 [Compound 2.I, N-(propylcarbamoselenoyl)thiophene-2-carboxamide]	50.2 ± 2%

System: MDA-MB-231 (breast) cancer cell line
Assay: MTT cell viability assay, MDA-MB-231
Format: cell-based, human
Details: Homo sapiens, MDA-MB-231, 48 h, read-out: Cell growth %, MDA-MB-231, 10 µM, 48 h, MTT
Method: as §1, §2, §3

Compound	activity at 10 µM
CCCNC(=[Se])NC(=O)c1cccs1 [Compound 2.I, N-(propylcarbamoselenoyl)thiophene-2-carboxamide]	32.8 ± 7.2%

Same assay, conditions: Homo sapiens, MDA-MB-231, 48 h, read-out: Cell growth %, MDA-MB-231, 50 µM, 48 h, MTT

Compound	activity at 50 µM
CCCNC(=[Se])NC(=O)c1cccs1 [Compound 2.I, N-(propylcarbamoselenoyl)thiophene-2-carboxamide]	15.2 ± 8.8%

System: not listed separately
Assay: DPPH radical scavenging assay
Format: biochemical
Details: 0.003 mg/mL, 0 min
Method: Different methods are available to quantify the antioxidant capacity of natural or novel molecules. Notable among these are the ABTS^•+ and DPPH^• methods, which measure the quenching efficiency in vitro for known concentrations of preformed radicals. In this work, the DPPH^• colorimetric assay was carried out. Measurements were recorded on a BioTeck PowerWave XS spectrophotometer (BioTeck Instruments, Winooski, VT, USA) and data were collected using KCJunior v.1.41. software (BioTeck Instruments, Winooski, VT, USA). Compounds with potent activity were selected to further determine their protective effect against ROS-induced cell death caused by H2O2.
DPPH colorimetric assay was performed to determine the in vitro radical scavenging activity of the acylselenourea derivatives. DPPH assay was performed as described by Svinyarov. For each acylselenourea, a stock solution of 1 mg/mL in dimethyl sulfoxide (DMSO) was made, and these solutions were used to prepare the different concentrations employed in the assay. The compounds were tested at two different concentrations (0.003 and 0.03 mg/mL). Intermediate solutions were prepared in methanol and a volume of 100 µL of each was added to each well of the plate. Then, 100 µL of DPPH^• (previously prepared at a concentration of 0.04 mg/mL in methanol and preserved in the dark) was added to the previous methanolic acylselenourea solutions. The discoloration of the purple radical to the yellow reduced form was followed at 517 nm at different time points (0, 5, 15, 30, 60, 90, and 120 min). Ascorbic acid and trolox were used as positive controls. All measurements were carried out in triplicate. Results are expressed as the percentage of the radicals scavenged, calculated using the following formula: (1) % DPPH radical scavenging=Acontrol - Asample/Acontrol × 100 where Acontrol refers to the absorbance of the negative control and Asample refers to the absorbance of the tested compounds. Results are expressed as percentage of DPPH radical scavenging ± SD.

Compound	inhibition
CCCNC(=[Se])NC(=O)c1cccs1 [Compound 2.I, N-(propylcarbamoselenoyl)thiophene-2-carboxamide]	0%

Same assay, conditions: 0.003 mg/mL, 5 min

Compound	inhibition
CCCNC(=[Se])NC(=O)c1cccs1 [Compound 2.I, N-(propylcarbamoselenoyl)thiophene-2-carboxamide]	4.9 ± 3.6%

Same assay, conditions: 0.003 mg/mL, 15 min

Compound	inhibition
CCCNC(=[Se])NC(=O)c1cccs1 [Compound 2.I, N-(propylcarbamoselenoyl)thiophene-2-carboxamide]	8.2 ± 3.3%

Same assay, conditions: 0.003 mg/mL, 30 min

Compound	inhibition
CCCNC(=[Se])NC(=O)c1cccs1 [Compound 2.I, N-(propylcarbamoselenoyl)thiophene-2-carboxamide]	11.4 ± 2.7%

Same assay, conditions: 0.003 mg/mL, 60 min

Compound	inhibition
CCCNC(=[Se])NC(=O)c1cccs1 [Compound 2.I, N-(propylcarbamoselenoyl)thiophene-2-carboxamide]	16 ± 3.4%

Same assay, conditions: 0.003 mg/mL, 90 min

Compound	inhibition
CCCNC(=[Se])NC(=O)c1cccs1 [Compound 2.I, N-(propylcarbamoselenoyl)thiophene-2-carboxamide]	17 ± 2.2%

Same assay, conditions: 0.003 mg/mL, 120 min

Compound	inhibition
CCCNC(=[Se])NC(=O)c1cccs1 [Compound 2.I, N-(propylcarbamoselenoyl)thiophene-2-carboxamide]	17.8 ± 2.2%

Same assay, conditions: 0.03 mg/mL

Compound	time to reach the highest DPPH inhibition
CCCNC(=[Se])NC(=O)c1cccs1 [Compound 2.I, N-(propylcarbamoselenoyl)thiophene-2-carboxamide]	60 min

Same assay, conditions: 0.03 mg/mL, 0 min

Compound	inhibition
CCCNC(=[Se])NC(=O)c1cccs1 [Compound 2.I, N-(propylcarbamoselenoyl)thiophene-2-carboxamide]	2.5 ± 0.6%

Same assay, conditions: 0.03 mg/mL, 5 min

Compound	inhibition
CCCNC(=[Se])NC(=O)c1cccs1 [Compound 2.I, N-(propylcarbamoselenoyl)thiophene-2-carboxamide]	12.8 ± 1.8%

Same assay, conditions: 0.03 mg/mL, 15 min

Compound	inhibition
CCCNC(=[Se])NC(=O)c1cccs1 [Compound 2.I, N-(propylcarbamoselenoyl)thiophene-2-carboxamide]	36.2 ± 0.1%

Same assay, conditions: 0.03 mg/mL, 30 min

Compound	inhibition
CCCNC(=[Se])NC(=O)c1cccs1 [Compound 2.I, N-(propylcarbamoselenoyl)thiophene-2-carboxamide]	59 ± 3%

Same assay, conditions: 0.03 mg/mL, 60 min

Compound	inhibition
CCCNC(=[Se])NC(=O)c1cccs1 [Compound 2.I, N-(propylcarbamoselenoyl)thiophene-2-carboxamide]	90.7 ± 5.7%

Same assay, conditions: 0.03 mg/mL, 90 min

Compound	inhibition
CCCNC(=[Se])NC(=O)c1cccs1 [Compound 2.I, N-(propylcarbamoselenoyl)thiophene-2-carboxamide]	95.5 ± 0.2%

Same assay, conditions: 0.03 mg/mL, 120 min

Compound	inhibition
CCCNC(=[Se])NC(=O)c1cccs1 [Compound 2.I, N-(propylcarbamoselenoyl)thiophene-2-carboxamide]	95.5 ± 0.3%
